Publication PMC10221074, “Functional Profiling of the A-Family of Venom Peptides from the Wolf Spider Lycosa shansia” (Toxins, 2023)

Legend:
G. mellonella larvae = assay: Insecticidal activity by injection into larvae; format: in vivo, Galleria mellonella; conditions: ethanol injected as positive control, after 5 days
Method: Insecticidal activity was determined using fourth and fifth instar G. mellonella larvae (L4/L5) obtained from Fauna Topics Zoobedarf Zucht und Handels GmbH (Marbach am Neckar, Germany). Because spider venom is injected via chelicerae, we opted for an injection-based assay to reflect the natural process of envenomation as described earlier. The peptides were dissolved in a 1:1 mixture of DMSO and water to a final concentration of 10 mmol/L. We injected 50 ng of each peptide into the pseudopodium using Omnican-F, 0.30 × 12 mm/G 30 × 1/2”, a 1 mL syringe adjusted to a WPI manual microsyringe injector setup. Injections with water, DMSO/water (1:1) and ethanol (90%) were used as controls, alongside untreated specimens. Insecticidal activity screenings were performed in cohorts of 10 larvae with 3 replicates (30 specimens per treatment or control). […] Survival was monitored every 24 h for 5 days. Mortality was calculated based on the ratio of dead to injected specimens.

[1] = test system: B/Malaysia/2506/2004 (B-Mal); format: cell-based, influenza virus
A/Hamburg/05/2009 (H1N1) = format: cell-based, influenza virus
A/Hessen/1/2003 (H3N2) = format: cell-based, influenza virus
[2] = test system: panel of seven bacterial strains; assay: Antibacterial growth assay (OD600), statements on the whole panel; format: cell-based; conditions: growth after 48 h
[3] = test system: Pseudomonas aeruginosa DSM 1117; assay: Antibacterial growth assay (OD600); conditions: OD600, medium = 100, MH II broth, 37 °C, peptide 200 µM mixed 50 µL + 50 µL with bacteria, Figure 7: 48 h; for Bacterial growth relative to medium, P. aeruginosa (1117), replicate 1: replicate column 1; for Bacterial growth relative to medium, P. aeruginosa (1117), replicate 2: replicate column 2; for Bacterial growth relative to medium, P. aeruginosa (1117), replicate 3: replicate column 3
Method: (§1) Cryo-conserved cultures of selected bacterial strains (Table 4) were transferred to Tryptic Soy Agar (TSA) plates (Carl Roth) with a sterile inoculation loop, sealed with Parafilm (BEMIS, Neenah, WI, USA), and incubated for 1–2 days at 37 °C depending on growth. Single colonies were picked and transferred into 2–3 mL of the Mueller–Hinton II (MH II) broth (BD, Heidelberg, Germany). The bacteria were cultivated overnight, subcultured on fresh medium and grown for 3–4 h before testing at 37 °C, with shaking at 180 rpm. We measured the optical density at 600 nm (OD600) of 1 mL of the bacterial suspensions in polystyrene cuvettes (SARSTED, Nümbrecht, Germany) using an Ultrospec 10 spectrophotometer (Biochrome, Cambridge, UK). We then diluted them with the MH II medium to the preferred OD600 (Table 2). The peptides were dissolved in DMSO to generate 10 mmol/L stocks and diluted with the MH II medium to 200 µM before the assay. We used 10 µg/mL (~40 µg/mL for S. epidermidis) gentamicin and colistin (Sigma-Aldrich, Taufkirchen, Germany), DMSO and the medium only as controls. The bacteria were transferred to 96-multiwell plates with a final volume of 100 µL per well (50 µL bacterial suspension, and 50 µL test peptide). The OD600 was measured at 0, 24 and 48 h using a BioTek Eon microplate reader followed by analysis with Gen5 v2.09.

[4] = test system: Pseudomonas aeruginosa DSM 50071; assay: Antibacterial growth assay (OD600); conditions: OD600, medium = 100, MH II broth, 37 °C, peptide 200 µM mixed 50 µL + 50 µL with bacteria, Figure 7: 48 h; for Bacterial growth relative to medium, P. aeruginosa (50071), replicate 1: replicate column 1; for Bacterial growth relative to medium, P. aeruginosa (50071), replicate 2: replicate column 2; for Bacterial growth relative to medium, P. aeruginosa (50071), replicate 3: replicate column 3
Method: as §1

[5] = test system: Micrococcus luteus DSM 20030; assay: Antibacterial growth assay (OD600); conditions: for Antibacterial activity (in words): M. luteus DSM 20030, growth after 48 h; for Bacterial growth relative to medium, M. luteus, replicate 1 / Bacterial growth relative to medium, M. luteus, replicate 2 / Bacterial growth relative to medium, M. luteus, replicate 3: OD600, medium = 100, MH II broth, 37 °C, peptide 200 µM mixed 50 µL + 50 µL with bacteria, Figure 7: 48 h; for Bacterial growth relative to medium, M. luteus, replicate 1: replicate column 1; for Bacterial growth relative to medium, M. luteus, replicate 2: replicate column 2; for Bacterial growth relative to medium, M. luteus, replicate 3: replicate column 3
[6] = test system: Staphylococcus aureus DSM 2569; assay: Antibacterial growth assay (OD600); conditions: for Bacterial growth relative to medium, S. aureus, replicate 1 / Bacterial growth relative to medium, S. aureus, replicate 2 / Bacterial growth relative to medium, S. aureus, replicate 3: OD600, medium = 100, MH II broth, 37 °C, peptide 200 µM mixed 50 µL + 50 µL with bacteria, Figure 7: 48 h; for Bacterial growth relative to medium, S. aureus, replicate 1: replicate column 1; for Bacterial growth relative to medium, S. aureus, replicate 2: replicate column 2; for Bacterial growth relative to medium, S. aureus, replicate 3: replicate column 3; for Antibacterial activity (in words): S. aureus DSM 2569, growth after 48 h
Method: as §1

[7] = test system: Escherichia coli BL21(DE3); assay: Antibacterial growth assay (OD600); conditions: for Antibacterial activity (in words): E. coli BL21(DE3), growth after 48 h; for Bacterial growth relative to medium, E. coli, replicate 1 / Bacterial growth relative to medium, E. coli, replicate 2 / Bacterial growth relative to medium, E. coli, replicate 3: OD600, medium = 100, MH II broth, 37 °C, peptide 200 µM mixed 50 µL + 50 µL with bacteria, Figure 7: 48 h; for Bacterial growth relative to medium, E. coli, replicate 1: replicate column 1; for Bacterial growth relative to medium, E. coli, replicate 2: replicate column 2; for Bacterial growth relative to medium, E. coli, replicate 3: replicate column 3
[8] = test system: Listeria monocytogenes DSM 20600; assay: Antibacterial growth assay (OD600); conditions: for Antibacterial activity (in words): L. monocytogenes DSM 20600, growth after 48 h; for Bacterial growth relative to medium, L. monocytogenes, replicate 1 / Bacterial growth relative to medium, L. monocytogenes, replicate 2 / Bacterial growth relative to medium, L. monocytogenes, replicate 3: OD600, medium = 100, MH II broth, 37 °C, peptide 200 µM mixed 50 µL + 50 µL with bacteria, Figure 7: 48 h; for Bacterial growth relative to medium, L. monocytogenes, replicate 1: replicate column 1; for Bacterial growth relative to medium, L. monocytogenes, replicate 2: replicate column 2; for Bacterial growth relative to medium, L. monocytogenes, replicate 3: replicate column 3
Method: as §1

[9] = test system: Staphylococcus epidermidis DSM 28319; assay: Antibacterial growth assay (OD600); conditions: for Bacterial growth relative to medium, S. epidermidis, replicate 1 / Bacterial growth relative to medium, S. epidermidis, replicate 2 / Bacterial growth relative to medium, S. epidermidis, replicate 3: OD600, medium = 100, MH II broth, 37 °C, peptide 200 µM mixed 50 µL + 50 µL with bacteria, Figure 7: 48 h; for Bacterial growth relative to medium, S. epidermidis, replicate 1: replicate column 1; for Bacterial growth relative to medium, S. epidermidis, replicate 2: replicate column 2; for Bacterial growth relative to medium, S. epidermidis, replicate 3: replicate column 3; for Antibacterial activity (in words): S. epidermidis DSM 28319, growth after 48 h

Compound | Viability of infected cells relative to aprotinin, Replicate 1 [1] | Viability of infected cells relative to aprotinin, Replicate 2 [1] | Viability of infected cells relative to aprotinin, Replicate 3 [1] | Viability of infected cells relative to aprotinin, Replicate 1 (A/Hamburg/05/2009 (H1N1)) | Viability of infected cells relative to aprotinin, Replicate 2 (A/Hamburg/05/2009 (H1N1)) | Viability of infected cells relative to aprotinin, Replicate 3 (A/Hamburg/05/2009 (H1N1)) | Viability of infected cells relative to aprotinin, Replicate 1 (A/Hessen/1/2003 (H3N2)) | Viability of infected cells relative to aprotinin, Replicate 2 (A/Hessen/1/2003 (H3N2)) | Antibacterial activity over the panel (in words) [2] | Bacterial growth relative to medium, P. aeruginosa (1117), replicate 1 [3] | Bacterial growth relative to medium, P. aeruginosa (1117), replicate 2 [3] | Bacterial growth relative to medium, P. aeruginosa (1117), replicate 3 [3] | Bacterial growth relative to medium, P. aeruginosa (50071), replicate 1 [4] | Bacterial growth relative to medium, P. aeruginosa (50071), replicate 2 [4] | Bacterial growth relative to medium, P. aeruginosa (50071), replicate 3 [4] | Bacterial growth relative to medium, M. luteus, replicate 1 [5] | Bacterial growth relative to medium, M. luteus, replicate 2 [5] | Bacterial growth relative to medium, M. luteus, replicate 3 [5] | Bacterial growth relative to medium, S. aureus, replicate 1 [6] | Bacterial growth relative to medium, S. aureus, replicate 2 [6] | also measured
CCO [EtOH, ethanol, reference compound] |  |  |  |  |  |  |  |  |  |  |  |  |  |  |  |  |  |  |  |  | Mortality (G. mellonella larvae): up to 50%
SLLGLLDVVKNTVGQ [LS-AMP-A11] | 0.04707 | 0.04802 | 0.0552 | 0.05004 | 0.04235 | 0.04417 | 0.1919 | 0.09823 | inhibited the growth of most of the bacteria except two | 82.0725 | 95.9276 | 84.5049 | 97.4528 | 114.818 | 88.0117 | 56.0386 | 92.3422 | 31.1812 | 50.8023 | 58.8947 | Viability of infected cells relative to aprotinin, Replicate 4 (A/Hamburg/05/2009 (H1N1); […], replicate 4 (additional internal control)): 0.03789; Viability of infected cells relative to aprotinin, Replicate 5 (A/Hamburg/05/2009 (H1N1); […], replicate 5 (additional internal control)): 0.01667; Viability of infected cells relative to aprotinin, Replicate 3 (A/Hessen/1/2003 (H3N2)): 0.08306; Antibacterial activity (in words) [5]: able to decrease the growth; Bacterial growth relative to medium, S. aureus, replicate 3 [6]: 79.7231; Antibacterial activity (in words) [6]: able to decrease the growth; Antibacterial activity (in words) [7]: able to decrease the growth; Bacterial growth relative to medium, E. coli, replicate 1 [7]: 64.587; Bacterial growth relative to medium, E. coli, replicate 2 [7]: 63.905; Bacterial growth relative to medium, E. coli, replicate 3 [7]: 36.8825; Antibacterial activity (in words) [8]: able to decrease the growth; Bacterial growth relative to medium, L. monocytogenes, replicate 1 [8]: 57.2028; Bacterial growth relative to medium, L. monocytogenes, replicate 2 [8]: 67.6393; Bacterial growth relative to medium, L. monocytogenes, replicate 3 [8]: 84.2183; Bacterial growth relative to medium, S. epidermidis, replicate 1 [9]: 49.2953; Bacterial growth relative to medium, S. epidermidis, replicate 2 [9]: 44.2655; Bacterial growth relative to medium, S. epidermidis, replicate 3 [9]: 33.4715; Antibacterial activity (in words) [9]: able to decrease the growth
SLLGLLDVVKNTVGQTG [LS-AMP-A9] | 0.09007 | 0.06966 | 0.05846 | 0.04771 | 0.03968 | 0.02362 | 0.1782 | 0.2232 | inhibited the growth of most of the bacteria except two | 56.3665 | 70.6926 | 77.8728 | 97.5053 | 110.589 | 87.613 | 52.4959 | 91.4416 | 32.7594 | 57.4133 | 67.8221 | Viability of infected cells relative to aprotinin, Replicate 3 (A/Hessen/1/2003 (H3N2)): 0.05605; Antibacterial activity (in words) [5]: able to decrease the growth; Bacterial growth relative to medium, S. aureus, replicate 3 [6]: 95.0991; Antibacterial activity (in words) [6]: able to decrease the growth; Antibacterial activity (in words) [7]: able to decrease the growth; Bacterial growth relative to medium, E. coli, replicate 1 [7]: 70.1329; Bacterial growth relative to medium, E. coli, replicate 2 [7]: 70.7996; Bacterial growth relative to medium, E. coli, replicate 3 [7]: 35.5653; Antibacterial activity (in words) [8]: able to decrease the growth; Bacterial growth relative to medium, L. monocytogenes, replicate 1 [8]: 56.5719; Bacterial growth relative to medium, L. monocytogenes, replicate 2 [8]: 67.4623; Bacterial growth relative to medium, L. monocytogenes, replicate 3 [8]: 66.1408; Bacterial growth relative to medium, S. epidermidis, replicate 1 [9]: 52.3672; Bacterial growth relative to medium, S. epidermidis, replicate 2 [9]: 52.2824; Bacterial growth relative to medium, S. epidermidis, replicate 3 [9]: 65.3172; Antibacterial activity (in words) [9]: able to decrease the growth
SLLGLLDVVKNTVGQTGLL [LS-AMP-A8] | 0.03065 | 0.0169 | 0.06181 | 0.02555 | 0.01502 | 0.01283 | 0.08185 | 0.1031 | inhibited the growth of most of the bacteria except two | 76.1322 | 81.7612 | 75.3667 | 99.79 | 113.132 | 91.0686 | 72.2222 | 103.716 | 73.0273 | 67.0732 | 73.4467 | Viability of infected cells relative to aprotinin, Replicate 3 (A/Hessen/1/2003 (H3N2)): 0.0008759; Antibacterial activity (in words) [5]: no activity; Bacterial growth relative to medium, S. aureus, replicate 3 [6]: 85.2226; Bacterial growth relative to medium, E. coli, replicate 1 [7]: 91.7388; Bacterial growth relative to medium, E. coli, replicate 2 [7]: 101.043; Bacterial growth relative to medium, E. coli, replicate 3 [7]: 53.4577; Bacterial growth relative to medium, L. monocytogenes, replicate 1 [8]: 57.9391; Bacterial growth relative to medium, L. monocytogenes, replicate 2 [8]: 71.2645; Bacterial growth relative to medium, L. monocytogenes, replicate 3 [8]: 69.2971; Bacterial growth relative to medium, S. epidermidis, replicate 1 [9]: 79.7615; Bacterial growth relative to medium, S. epidermidis, replicate 2 [9]: 73.3026; Bacterial growth relative to medium, S. epidermidis, replicate 3 [9]: 77.5582
SLLGLLDVVKSKVGQTGLL [LS-AMP-A18] | 0.06546 | 0.04295 | 0.0512 | 0.03159 | 0.03911 | 0.01637 | 0.1207 | 0.1378 | largely inactive | 87.8796 | 68.3606 | 68.2151 | 102.836 | 105.708 | 87.0813 | 143.237 | 115.766 | 65.7102 | 75 | 66.2525 | Bacterial growth relative to medium, S. aureus, replicate 3 [6]: 80.9203; Bacterial growth relative to medium, E. coli, replicate 1 [7]: 110.572; Bacterial growth relative to medium, E. coli, replicate 2 [7]: 96.6395; Bacterial growth relative to medium, E. coli, replicate 3 [7]: 68.0936; Bacterial growth relative to medium, L. monocytogenes, replicate 1 [8]: 145.215; Bacterial growth relative to medium, L. monocytogenes, replicate 2 [8]: 105.128; Bacterial growth relative to medium, L. monocytogenes, replicate 3 [8]: 13.7733; Bacterial growth relative to medium, S. epidermidis, replicate 1 [9]: 95.0126; Bacterial growth relative to medium, S. epidermidis, replicate 2 [9]: 84.2348; Bacterial growth relative to medium, S. epidermidis, replicate 3 [9]: 89.1297
